Laboratory results published in patent publication US9163256B2, “Mutant receptors and their use in a nuclear receptor-based inducible gene expression system” (priority 2004, dated 2015).
“And” between values parts separate entries of the source, which are not always exact repeats. Identical values can stand only once.

How the values were obtained:
CfEcR-DEF mutant A110P = CfEcR-DEF mutant A110P (Choristoneura fumiferana, UniProt O77255, A393P); test: cell-based
Outline: (§1)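 Mutant CfEcR-DEF receptor and GAL4-driven luciferase reporter constructs transfected into mouse NIH3T3 cells with DMSO or ligand added; maintained 48 h at 37° C in 5% FBS, harvested 40 h after ligand addition. Dual-luciferase read-out; fold induction = RLU with ligand / RLU with DMSO.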

CfEcR-DEF mutant F109N = CfEcR-DEF mutant F109N (Choristoneura fumiferana, UniProt O77255, F392N); test: cell-based
Outline: as §1

CfEcR-DEF mutant F109W = CfEcR-DEF mutant F109W (Choristoneura fumiferana, UniProt O77255, F392W); test: cell-based
Outline: as §1

CfEcR-DEF mutant I51L = CfEcR-DEF mutant I51L (Choristoneura fumiferana, UniProt O77255, I334L); test: cell-based
Outline: as §1

CfEcR-DEF mutant L132V = CfEcR-DEF mutant L132V (Choristoneura fumiferana, UniProt O77255, L415V); test: cell-based
Outline: as §1

CfEcR-DEF mutant M125C = CfEcR-DEF mutant M125C (Choristoneura fumiferana, UniProt O77255, M408C); test: cell-based
Outline: as §1

CfEcR-DEF mutant M125E = CfEcR-DEF mutant M125E (Choristoneura fumiferana, UniProt O77255, M408E); test: cell-based
Outline: as §1

CfEcR-DEF mutant M125L = CfEcR-DEF mutant M125L (Choristoneura fumiferana, UniProt O77255, M408L); test: cell-based
Outline: as §1

CfEcR-DEF mutant M125P = CfEcR-DEF mutant M125P (Choristoneura fumiferana, UniProt O77255, M408P); test: cell-based
Outline: as §1

CfEcR-DEF mutant R95H = CfEcR-DEF mutant R95H (Choristoneura fumiferana, UniProt O77255, R378H); test: cell-based
Outline: as §1

CfEcR-DEF mutant R95W = CfEcR-DEF mutant R95W (Choristoneura fumiferana, UniProt O77255, R378W); test: cell-based
Outline: as §1

CfEcR-DEF mutant T52L = CfEcR-DEF mutant T52L (Choristoneura fumiferana, UniProt O77255, T335L); test: cell-based
Outline: as §1

[1] = target: CfEcR-DEF mutant V128F/A110P (Choristoneura fumiferana, UniProt O77255, A393P/V411F); test: cell-based
Outline: as §1

CfEcR-DEF mutant V96W = CfEcR-DEF mutant V96W (Choristoneura fumiferana, UniProt O77255, V379W); test: cell-based
Outline: as §1

CfEcR-DEF mutant W238P = CfEcR-DEF mutant W238P (Choristoneura fumiferana, UniProt O77255, W521P); test: cell-based
Outline: as §1

CfEcR-DEF mutant W238Y = CfEcR-DEF mutant W238Y (Choristoneura fumiferana, UniProt O77255, W521Y); test: cell-based
Outline: as §1

CfEcR-DEF mutant A110N = CfEcR-DEF mutant A110N (Choristoneura fumiferana, UniProt O77255, A393N); test: cell-based; set-up: Concentration (mM) at max FI: unit not given here
Method: (§2) This construct was prepared in the same way as in switch 1.1 above except wild-type CfEcR-DEF was replaced with mutant CfEcR-DEF comprising a ligand binding domain comprising a substitution mutation selected from Table 1 below.
(§3) DNAs were transfected into mouse NIH3T3 cells (ATCC) as follows. Standard methods for culture and maintenance of the cells were followed. Cells were harvested and plated 96-well plates at 2,500 cells per well, in 50 μL of growth medium containing 10% fetal bovine serum (FBS). Twenty-four hours later, the cells were treated with 35 μL of serum-free growth medium containing either dimethylsulfoxide (DMSO; control) or a DMSO solution of ligand. The cells were then transfected using Superfect (Qiagen Inc.) transfection reagent. For each well, 0.625 μL of Superfect was mixed with 14.2 μL of serum-free growth medium. 0.16 μg of reporter construct and 0.04 μg of each receptor construct were added to the transfection reagent mix. The contents of the transfection mix were mixed in a vortex mixer and let stand at room temperature for 30 minutes. At the end of incubation, 15 μL of transfection mix was added to the cells. The cells were maintained at 37° C. and 5% CO2 for 48 hours in 5% FBS.
(§4) Reporter Assays: Cells were harvested 40 hours after adding ligands. 125 μL of passive lysis buffer (part of Dual-Luciferase reporter assay system from Promega Corporation) were added to each well of the […] plate. The plates were placed on a rotary shaker for 15 minutes. Twenty μL of lysate were assayed. Luciferase activity was measured using Dual-Luciferase reporter assay system from Promega Corporation following the manufacturer's instructions. Fold induction (FI) activities were calculated by dividing relative light units (“RLU”) in ligand treated cells with RLU in DMSO treated cells (untreated control).

CfEcR-DEF mutant F48N = CfEcR-DEF mutant F48N (Choristoneura fumiferana, UniProt O77255, F331N); test: GAL4-driven luciferase reporter assay in NIH3T3 cells; type: cell-based
Method: as §2, §3, §4

CfEcR-DEF mutant M125W = CfEcR-DEF mutant M125W (Choristoneura fumiferana, UniProt O77255, M408W); test: as above; type: cell-based
Method: as §2, §3, §4

[2] = target: CfEcR-DEF mutant T52V/A110P (Choristoneura fumiferana, UniProt O77255, A393P/T335V); test: as above; type: cell-based
Method: as §2, §3, §4

[3] = target: CfEcR-DEF mutant V107I/Y127E/T52V (Choristoneura fumiferana, UniProt O77255, T335V/V390I/Y410E); test: as above; type: cell-based
Method: as §2, §3, §4

[4] = NIH3T3, 40 h, read-out: Rel Max FI
[5] = NIH3T3, mouse, 40 h, read-out: GS-E ligand max FI (relative to DMSO)

Sequence of CfEcR-DEF mutant R95W (O77255 entry or part of it R378W): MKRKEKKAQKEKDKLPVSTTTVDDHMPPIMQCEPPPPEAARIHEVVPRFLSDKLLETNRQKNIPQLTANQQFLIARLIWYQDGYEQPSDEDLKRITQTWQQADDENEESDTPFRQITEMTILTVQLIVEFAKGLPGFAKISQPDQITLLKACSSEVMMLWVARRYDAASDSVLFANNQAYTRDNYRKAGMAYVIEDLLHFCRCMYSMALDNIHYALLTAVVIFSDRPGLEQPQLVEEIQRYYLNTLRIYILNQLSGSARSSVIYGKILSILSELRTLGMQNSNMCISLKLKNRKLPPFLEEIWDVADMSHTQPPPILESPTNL
Sequence of CfEcR-DEF mutant R95W (P28702 299-449, further chain): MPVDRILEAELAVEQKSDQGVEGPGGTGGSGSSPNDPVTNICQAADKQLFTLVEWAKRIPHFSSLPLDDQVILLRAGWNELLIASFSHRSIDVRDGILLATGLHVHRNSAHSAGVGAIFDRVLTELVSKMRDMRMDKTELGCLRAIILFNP
Sequence of CfEcR-DEF mutant I51L (O77255 entry or part of it I334L): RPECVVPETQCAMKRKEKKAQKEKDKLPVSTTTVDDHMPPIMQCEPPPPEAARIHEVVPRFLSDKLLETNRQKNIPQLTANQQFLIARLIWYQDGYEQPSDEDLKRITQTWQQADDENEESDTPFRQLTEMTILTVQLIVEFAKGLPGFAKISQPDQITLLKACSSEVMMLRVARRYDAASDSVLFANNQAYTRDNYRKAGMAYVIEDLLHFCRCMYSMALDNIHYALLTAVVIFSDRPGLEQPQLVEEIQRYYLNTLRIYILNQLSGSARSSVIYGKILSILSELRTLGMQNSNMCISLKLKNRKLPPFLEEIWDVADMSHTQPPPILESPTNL
Sequence of CfEcR-DEF mutant I51L (P28702 299-449, further chain): as the sequence (P28702 299-449, further chain) above
Sequence of CfEcR-DEF mutant R95H (P28702 299-449): as the sequence (P28702 299-449, further chain) above
Sequence of CfEcR-DEF mutant R95H (O77255 entry or part of it R378H): as the sequence (O77255 entry or part of it R378W) above, with W160H counted along it
Sequence of CfEcR-DEF mutant F109N (P28702 299-449): as the sequence (P28702 299-449, further chain) above
Sequence of CfEcR-DEF mutant F109N (O77255 entry or part of it F392N): as the sequence (O77255 entry or part of it I334L) above, with L128I, F186N counted along it
Sequence of CfEcR-DEF mutant V128F/A110P (P28702 299-449, stated change not applied): as the sequence (P28702 299-449, further chain) above
Sequence of CfEcR-DEF mutant V128F/A110P (O77255 entry or part of it A393P/V411F): as the sequence (O77255 entry or part of it R378W) above, with W160R, A175P, V193F counted along it
Sequence of CfEcR-DEF mutant M125L (P28702 299-449): as the sequence (P28702 299-449, further chain) above
Sequence of CfEcR-DEF mutant M125L (O77255 entry or part of it M408L): as the sequence (O77255 entry or part of it R378W) above, with W160R, M190L counted along it
Sequence of CfEcR-DEF mutant W238Y (P28702 299-449): as the sequence (P28702 299-449, further chain) above
Sequence of CfEcR-DEF mutant W238Y (O77255 entry or part of it W521Y): as the sequence (O77255 entry or part of it R378W) above, with W160R, W303Y counted along it
Sequence of CfEcR-DEF mutant M125P (P28702 299-449): as the sequence (P28702 299-449, further chain) above
Sequence of CfEcR-DEF mutant M125P (O77255 entry or part of it M408P): as the sequence (O77255 entry or part of it R378W) above, with W160R, M190P counted along it
Sequence of CfEcR-DEF mutant W238P (P28702 299-449): as the sequence (P28702 299-449, further chain) above
Sequence of CfEcR-DEF mutant W238P (O77255 entry or part of it W521P): as the sequence (O77255 entry or part of it R378W) above, with W160R, W303P counted along it

CCc1c(OC)cccc1C(=O)NN(C(=O)c1cc(C)cc(C)c1)C(C)(C)C [RG-102240, N-(2-ethyl-3-methoxybenzoyl)-N′-(3,5-dimethylbenzoyl)-N′-tert-butylhydrazine]
EC50 (CfEcR-DEF mutant A110P): 0.55 µM | Emax (CfEcR-DEF mutant A110P; [4]): 100% | maximal fold induction (CfEcR-DEF mutant A110P; [5]): 2290 | EC50 (CfEcR-DEF mutant F109N): 2.7 µM | Emax (CfEcR-DEF mutant F109N; [4]): 100% | maximal fold induction (CfEcR-DEF mutant F109N; [5]): 1510 | Concentration (mM) at max FI (CfEcR-DEF mutant F109N; mutant F109N, GS-E ligand): 0.0333 mM | EC50 (CfEcR-DEF mutant F109W): 0.61 µM | Emax (CfEcR-DEF mutant F109W; [4]): 100% | maximal fold induction (CfEcR-DEF mutant F109W; [5]): 3060 | Concentration (mM) at max FI (CfEcR-DEF mutant F109W; mutant F109W, GS-E ligand): 10.00 mM | EC50 (CfEcR-DEF mutant I51L): 3.2 µM | Emax (CfEcR-DEF mutant I51L; [4]): 100% | maximal fold induction (CfEcR-DEF mutant I51L; [5]): 2480 | Concentration (mM) at max FI (CfEcR-DEF mutant I51L; mutant I51L, GS-E ligand): 33.30 mM | EC50 (CfEcR-DEF mutant L132V): 2.32 µM | Emax (CfEcR-DEF mutant L132V; [4]): 100% | maximal fold induction (CfEcR-DEF mutant L132V; [5]): 2130 | Concentration (mM) at max FI (CfEcR-DEF mutant L132V; mutant L132V, GS-E ligand): 0.01 mM | EC50 (CfEcR-DEF mutant M125C; EC50, mutant M125C): ~8 µM and > 33 µM | Emax (CfEcR-DEF mutant M125C; [4]): 100% | maximal fold induction (CfEcR-DEF mutant M125C; [5]): 9 | Concentration (mM) at max FI (CfEcR-DEF mutant M125C; mutant M125C, GS-E ligand): 33.3 mM | EC50 (CfEcR-DEF mutant M125E): ~2 µM | Emax (CfEcR-DEF mutant M125E; [4]): 100% | maximal fold induction (CfEcR-DEF mutant M125E; [5]): 1200 | Concentration at max FI (CfEcR-DEF mutant M125E; mutant M125E, GS-E ligand): 33.3 mM | EC50 (CfEcR-DEF mutant M125L): ~10 µM | Emax (CfEcR-DEF mutant M125L; [4]): 100% | maximal fold induction (CfEcR-DEF mutant M125L; [5]): 2250 | Concentration (mM) at max FI (CfEcR-DEF mutant M125L; mutant M125L, GS-E ligand): 0.0333 mM | EC50 (CfEcR-DEF mutant M125P): > 33 µM | Emax (CfEcR-DEF mutant M125P; [4]): 100% | maximal fold induction (CfEcR-DEF mutant M125P; [5]): 1 | Concentration (mM) at max FI (CfEcR-DEF mutant M125P; mutant M125P, GS-E ligand): 0.0333 mM | EC50 (CfEcR-DEF mutant R95H): 1.58 µM | Emax (CfEcR-DEF mutant R95H; [4]): 100% | maximal fold induction (CfEcR-DEF mutant R95H; [5]): 3410 | Concentration (mM) at max FI (CfEcR-DEF mutant R95H; mutant R95H, GS-E ligand): 33.30 mM | EC50 (CfEcR-DEF mutant R95W): ~7 µM | Emax (CfEcR-DEF mutant R95W; [4]): 100% | maximal fold induction (CfEcR-DEF mutant R95W; [5]): 1820 | Concentration (mM) at max FI (CfEcR-DEF mutant R95W; mutant R95W, GS-E ligand): 33.30 mM | EC50 (CfEcR-DEF mutant T52L): ~0.5 µM | Emax (CfEcR-DEF mutant T52L; [4]): 100% | maximal fold induction (CfEcR-DEF mutant T52L; [5]): 1130 | Concentration (mM) at max FI (CfEcR-DEF mutant T52L; mutant T52L, GS-E ligand): 33.3 mM | EC50 [1]: ~8 µM | Emax [1, 4]: 100% | maximal fold induction [1, 5]: 2960 | Concentration (mM) at max FI ([1]; mutant V128F/A110P, GS-E ligand): 33.30 mM | EC50 (CfEcR-DEF mutant V96W): ~1 µM | Emax (CfEcR-DEF mutant V96W; [4]): 100% | maximal fold induction (CfEcR-DEF mutant V96W; [5]): 615 | Concentration (mM) at max FI (CfEcR-DEF mutant V96W; mutant V96W, GS-E ligand): 33.3 mM | EC50 (CfEcR-DEF mutant W238P): ~0.4 µM | Emax (CfEcR-DEF mutant W238P; [4]): 100% | maximal fold induction (CfEcR-DEF mutant W238P; [5]): 4810 | Concentration (mM) at max FI (CfEcR-DEF mutant W238P; mutant W238P, GS-E ligand): 10 mM | EC50 (CfEcR-DEF mutant W238Y): ~13 µM | Emax (CfEcR-DEF mutant W238Y; [4]): 100% | maximal fold induction (CfEcR-DEF mutant W238Y; [5]): 11 | Concentration (mM) at max FI (CfEcR-DEF mutant W238Y; mutant W238Y, GS-E ligand): 0.0333 mM | EC50 (CfEcR-DEF mutant A110N): 1.41 µM | Emax (CfEcR-DEF mutant A110N; [4]): 100% | maximal fold induction (CfEcR-DEF mutant A110N; [5]): 1680 | Concentration (mM) at max FI (CfEcR-DEF mutant A110N; mutant A110N, GS-E ligand): 10.00 | EC50 (CfEcR-DEF mutant F48N): 0.75 µM | Emax (CfEcR-DEF mutant F48N; [4]): 100% | EC50 (CfEcR-DEF mutant M125W): 3.49 µM | Emax (CfEcR-DEF mutant M125W; [4]): 100% | EC50 [2]: 0.33 µM | Emax [2, 4]: 100% | EC50 [3]: 0.06 µM | Emax [3, 4]: 100%
